Measurements as given in ChEMBL document CHEMBL1144521, “Design, synthesis and biological activity of selective and orally available TF/FVIIa complex inhibitors containing non-amidine P1 ligands” (Bioorg Med Chem, 2007).
Each block holds one molecule with its values, some of them ahead of it.

Experiments:
[1] = biological target: T1, Coagulation factor VII (Homo sapiens, UniProt P08709); assay: Inhibition of human TF/FVIIa complex by chromogenic assay
T1 sequence (P08709 whole entry): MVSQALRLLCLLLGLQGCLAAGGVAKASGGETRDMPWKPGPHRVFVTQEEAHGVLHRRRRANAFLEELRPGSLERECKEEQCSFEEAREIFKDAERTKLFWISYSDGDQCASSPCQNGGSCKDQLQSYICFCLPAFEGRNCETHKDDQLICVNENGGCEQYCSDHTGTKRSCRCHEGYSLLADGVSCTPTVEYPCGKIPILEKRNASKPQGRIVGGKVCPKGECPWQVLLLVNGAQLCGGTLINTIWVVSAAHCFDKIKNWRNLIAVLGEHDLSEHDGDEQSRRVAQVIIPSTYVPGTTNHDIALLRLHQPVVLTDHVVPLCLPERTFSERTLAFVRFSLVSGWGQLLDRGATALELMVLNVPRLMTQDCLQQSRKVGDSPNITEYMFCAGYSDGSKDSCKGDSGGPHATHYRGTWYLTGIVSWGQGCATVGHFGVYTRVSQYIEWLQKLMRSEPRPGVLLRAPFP

[2] = biological target: Coagulation factor X (Homo sapiens, UniProt P00742); assay: Inhibition of human Fxa by chromogenic assay
[3] = biological target: Prothrombin (Homo sapiens, UniProt P00734); assay: Inhibition of human thrombin by chromogenic assay
[4] = biological target: Trypsin (Homo sapiens, UniProt P07477+P07478+P35030); assay: Inhibition of human trypsin by chromogenic assay; type: protein assay
[5] = tested on: Plasma; assay: Anticoagulant potency in human citreated plasma assessed as concentration required to double prothrombin time; type: functional
[6] = tested on: Plasma; assay: Anticoagulant potency in human citreated plasma assessed as concentration required to double activated partial thromboplastin time; type: functional
[7] = Plasma concentration in ICR mouse at 300 mg/kg, po after 0.5 hrs by TF/FVIIa inhibition assay; type: ADME, organism-based; parameters: dose 300 mg/kg, route oral
[8] = Plasma concentration in ICR mouse at 300 mg/kg, po after 2 hrs by TF/FVIIa inhibition assay; type: ADME, organism-based; parameters: dose 300 mg/kg, route oral
[9] = Plasma concentration in ICR mouse at 100 mg/kg, po after 0.5 hrs by TF/FVIIa inhibition assay; type: ADME, organism-based; parameters: dose 100 mg/kg, route oral
[10] = Plasma concentration in ICR mouse at 100 mg/kg, po after 2 hrs by TF/FVIIa inhibition assay; type: ADME, organism-based; parameters: dose 100 mg/kg, route oral
[11] = Plasma concentration in ICR mouse at 100 mg/kg, po after 4 hrs by TF/FVIIa inhibition assay; type: ADME, organism-based; parameters: dose 100 mg/kg, route oral
[12] = tested on: Cynomolgus monkey; assay: Prolongation of prothrombin time in cynomolgus monkey citreated blood at 3 mg/kg, iv; type: functional, Macaca fascicularis
[13] = tested on: Cynomolgus monkey; assay: Prolongation of prothrombin time in cynomolgus monkey citreated blood at 10 mg/kg, iv; type: functional, Macaca fascicularis
[14] = tested on: Cynomolgus monkey; assay: Prolongation of prothrombin time in cynomolgus monkey citreated blood at 30 mg/kg, iv; type: functional, Macaca fascicularis
[15] = tested on: Cynomolgus monkey; assay: Effect on activated partial thromboplastin time in cynomolgus monkey citreated blood at 3 mg/kg, iv; type: functional, Macaca fascicularis
[16] = tested on: Cynomolgus monkey; assay: Effect on activated partial thromboplastin time in cynomolgus monkey citreated blood at 10 mg/kg, iv; type: functional, Macaca fascicularis
[17] = tested on: Cynomolgus monkey; assay: Effect on activated partial thromboplastin time in cynomolgus monkey citreated blood at 30 mg/kg, iv; type: functional, Macaca fascicularis
[18] = tested on: Cynomolgus monkey; assay: Effect on bleeding time in cynomolgus monkey at 3 mg/kg, iv; type: functional, Macaca fascicularis
[19] = tested on: Cynomolgus monkey; assay: Effect on bleeding time in cynomolgus monkey at 10 mg/kg, iv; type: functional, Macaca fascicularis
[20] = tested on: Cynomolgus monkey; assay: Effect on bleeding time in cynomolgus monkey at 30 mg/kg, iv; type: functional, Macaca fascicularis

Chain of Coagulation factor X (P00742 41-179 limits assumed): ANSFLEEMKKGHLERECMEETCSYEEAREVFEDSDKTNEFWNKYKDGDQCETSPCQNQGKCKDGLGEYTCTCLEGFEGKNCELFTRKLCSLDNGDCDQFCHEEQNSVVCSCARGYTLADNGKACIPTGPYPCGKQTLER
Chain of Coagulation factor X (P00742 235-488 limits assumed): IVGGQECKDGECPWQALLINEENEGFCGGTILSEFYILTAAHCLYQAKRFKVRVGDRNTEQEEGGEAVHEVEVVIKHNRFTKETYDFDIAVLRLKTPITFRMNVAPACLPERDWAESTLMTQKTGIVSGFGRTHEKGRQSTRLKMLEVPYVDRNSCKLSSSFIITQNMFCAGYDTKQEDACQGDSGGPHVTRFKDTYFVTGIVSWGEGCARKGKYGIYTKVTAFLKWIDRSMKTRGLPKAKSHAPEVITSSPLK

Compound: CC(C)C[C@H](NC(=O)c1ccc(-c2ccccc2C(=O)Nc2cccc(C(N)=O)c2)c(C(=O)O)c1)C(=O)O
IC50 [1]: 2.4 µM

Compound: CNc1ccc(-c2ccc(C(=O)N[C@H](CO)CC(C)C)cc2C(=O)O)c(C(=O)Nc2cccc(C(N)=O)c2)c1
IC50 [1]: 0.3 µM

Compound: CC(C)C[C@@H](CO)NC(=O)c1ccc(-c2ccccc2C(=O)Nc2cccc(C(N)=O)c2)c(C(=O)O)c1
IC50 [1]: 8.5 µM

Compound: CC(C)C[C@H](NC(=O)c1ccc(-c2ccc(NC3CCCCC3)cc2C(=O)Nc2cccc(C(N)=O)c2)c(C(=O)O)c1)C(N)=O
IC50 [1]: 91 µM

Compound: CNc1ccc(-c2ccc(C(=O)N[C@@H](CC(C)C)C(=O)O)cc2C(=O)O)c(C(=O)Nc2cccc(C(N)=O)c2)c1
IC50 [1]: 0.15 µM | IC50 [2]: > 200 µM | IC50 [3]: > 200 µM | IC50 [4]: > 200 µM | Activity [5]: 33 µM | Activity [6]: >300 µM

Compound: CNc1ccc(-c2ccc(C(=O)N[C@@H](CC(C)C)C(N)=O)cc2C(=O)O)c(C(=O)Nc2cccc(C(N)=O)c2)c1
IC50 [1]: 0.18 µM | IC50 [2]: > 200 µM | IC50 [3]: > 200 µM | IC50 [4]: > 200 µM | Activity [5]: 20 µM | Activity [6]: >300 µM | concentration at 0.5 h [9]: 0.28 µg/mL | concentration at 2 h [10]: 0.21 µg/mL

Compound: CC(C)C[C@H](NC(=O)c1ccc(-c2ccccc2C(=O)Nc2cccc(C(N)=O)c2)c(C(=O)O)c1)C(=O)N(C)C
IC50 [1]: 3.2 µM

Compound: CCCCNc1ccc(-c2ccc(C(=O)N[C@@H](CC(C)C)C(N)=O)cc2C(=O)O)c(C(=O)Nc2cccc(C(N)=O)c2)c1
IC50 [1]: 2.2 µM

Continued by falling IC50 [1], values first:

IC50 [1]: 191 µM
Compound: CC(C)C[C@H](CO)NC(=O)c1ccc(-c2ccccc2C(=O)Nc2cccc(C(N)=O)c2)c(C(=O)O)c1

IC50 [1]: 19 µM
Compound: CC(C)CCNC(=O)c1ccc(-c2ccccc2C(=O)Nc2cccc(C(N)=O)c2)c(C(=O)O)c1

IC50 [1]: 19 µM
Compound: CC(C)CNC(=O)c1ccc(-c2ccccc2C(=O)Nc2cccc(C(N)=O)c2)c(C(=O)O)c1

IC50 [1]: 4.2 µM
Compound: CC(C)C[C@H](NC(=O)c1ccc(-c2ccccc2C(=O)Nc2cccc(C(N)=O)c2)c(C(=O)O)c1)C(N)=O

IC50 [1]: 4.2 µM
Compound: CNC(=O)[C@H](CC(C)C)NC(=O)c1ccc(-c2ccccc2C(=O)Nc2cccc(C(N)=O)c2)c(C(=O)O)c1

IC50 [1]: 1.3 µM
Compound: CNc1ccc(-c2ccc(C(=O)N[C@H](CO)CC(C)C)cc2C(=O)O)c(C(=O)Nc2ccc(CN)cc2)c1

IC50 [1]: 0.86 µM
Compound: CC(C)C[C@H](NC(=O)c1ccc(-c2ccc(NC(C)C)cc2C(=O)Nc2cccc(C(N)=O)c2)c(C(=O)O)c1)C(N)=O

IC50 [1]: 0.69 µM | IC50 [2]: > 200 µM | IC50 [3]: > 200 µM | IC50 [4]: 4.8 µM
Compound: CNc1ccc(-c2ccc(C(=O)NCC(C)C)cc2C(=O)O)c(C(=O)Nc2cccc(C(N)=O)c2)c1
Activity [5]: 150 µM | Activity [6]: >300 µM

IC50 [1]: 0.59 µM | IC50 [2]: > 200 µM | IC50 [3]: > 200 µM | IC50 [4]: > 200 µM | concentration at 0.5 h [7]: 1.8 µg/mL | concentration at 4 h [11]: 0.13 µg/mL
Compound: CNc1ccc(-c2ccc(C(=O)N[C@@H](CC(C)C)C(N)=O)cc2C(=O)O)c(C(=O)Nc2ccc(CN)cc2)c1
Activity [5]: 47 µM | Activity [6]: >300 µM | PT [12]: 15.1 s | PT [13]: 24.5 s | PT [14]: 38.4 s | APTT [15]: 29.1 s | APTT [16]: 32.2 s | APTT [17]: 35 s | Activity [18]: 3.5 min | Activity [19]: 2.7 min | Activity [20]: 3.7 min

IC50 [1]: 0.3 µM
Compound: CCNc1ccc(-c2ccc(C(=O)N[C@@H](CC(C)C)C(N)=O)cc2C(=O)O)c(C(=O)Nc2cccc(C(N)=O)c2)c1

IC50 [1]: 0.089 µM | IC50 [2]: 0.88 µM | IC50 [3]: > 200 µM | IC50 [4]: 4.8 µM | concentration at 0.5 h [7]: 0.3 µg/mL | concentration at 2 h [8]: 0.16 µg/mL
Compound: CC(C)CNC(=O)c1ccc(-c2ccccc2C(=O)Nc2ccc(C(=N)N)cc2)c(C(=O)O)c1
Activity [5]: 4.2 µM | Activity [6]: 4.3 µM
